We go through 4 molecules from patent publication US20130225539A1, “METHOD FOR PRODUCING CRYSTALLINE 5-AMINOSALICYLIC ACID” (Pharmazell GMBH, priority 2010, published 2013).

Common to all, as to type: physicochemical
The nature of data set [1]: Grain size distribution by laser light diffraction (Ph. Eur. 2.9.31). The method, then:
(§1) The bulk density and tapped density are measured by methods known to the skilled person, such as those described in the USP (“United States Pharmacopeia”) monograph, e.g., USP 27, Vol. 1, pp. 226 to 227, May 1, 2009-Apr. 30, 2010, Bulk Density 616, Method 1, Tapped Density 616, Method 2. The measurement of the grain size distribution is effected according to the protocols of European Pharmacopeia, Supplement 6.6, Chapter 2.9.31 “Particle Size Analysis by Laser Light Diffraction” pp. 5103-5107.
(§2) The crystals are described by their particle size distribution as observed by laser diffraction, their optical micrograph image and their aspect ratio which can be determined, for example, by means of image analysis using the Malvern Symex FPIA 3000.

Data set [2] is described as follows: Tapped density (USP 616, Method 2). The conditions noted are these: crystalline powder. How it is done: as §1
A short description of data set [3]: Bulk density (USP 616, Method 1). The conditions noted are these: crystalline powder. How it is done: as §1
A short description of data set [4]: Crystal shape by image analysis (Malvern Sysmex FPIA 3000): aspect ratio, circularity. Conditions: for Aspect ratio (width/length; w/l): main fraction of the crystals.
Description: as §2
The aspect ratio (width/length; w/l) is expressed by a proportion. In the case of the 5-ASA according to the invention having a particularly high bulk density, the main fraction of the crystals has an aspect ratio around 0.5. From this, a width to length ratio of w/l of 1:2 can be calculated. In the 5-ASA having a high bulk density according to the invention, the aspect ratio is around 0.36, thus corresponding to a width to length ratio of 1:3. The different aspect ratios of the 5-ASA crystal fractions according to the invention having high and particularly high bulk densities bring about the different bulk and tapped densities and the differently broad grain size distributions seen in the laser diffractograms according to FIG. 10 and FIG. 11.
The measured value of circularity describes the deviation of the crystal shape from ideal spherical shape. A value of 1 corresponds to an ideal sphere.

Setting [5] is: listed as 5-ASA coarse crystals.

Where two headings read alike, the source gives them in different places.

Consider `Nc1ccc(O)c(C(=O)O)c1` [5-ASA coarse acicular crystals, 5-aminosalicylic acid], for which the “Grain size distribution X(10)” value in data set [1] is listed as “X (10) = 10-15 μm”; in data set [1] (setting [5]), “X(10) = 10-15 μm”. Further, the “Grain size distribution X(50)” value is “X (50) = 50-60 μm” in data set [1] and 50-60 μm in data set [1] (setting [5]). The “Grain size distribution X(90)” value is reported as “X (90) = 200-220 μm” in data set [1] and 200-220 μm in data set [1] (setting [5]). Further, the Tapped density in data set [2] and in data set [2] (setting [5]) was 450 to 480 g/L each time. The Bulk density in data set [3] and in data set [3] (setting [5]) was 250 to 270 g/L throughout.

On to `Nc1ccc(O)c(C(=O)O)c1` [5-ASA fine acicular crystals, 5-aminosalicylic acid], for which the figures for the “Grain size distribution X(10)” value in data set [1] and in data set [1] (listed as 5-ASA fine crystals) were “X (10) = 2-6 μm” and “X(10) = 2-6 μm”, respectively. Also, the “Grain size distribution X(50)” value in data set [1] is given as “X (50) = 8-20 μm”; in data set [1] (listed as 5-ASA fine crystals), 8-20 μm. Further, the figures for the “Grain size distribution X(90)” value in data set [1] and in data set [1] (listed as 5-ASA fine crystals) were “X (90) = 25-50 μm” and 25-50 μm, respectively. In addition, the Tapped density in data set [2] and in data set [2] (listed as 5-ASA fine crystals) was 300 to 390 g/L throughout. Moreover, the Bulk density in data set [3] and in data set [3] (listed as 5-ASA fine crystals) was 150 to 190 g/L each time.

For the molecule `Nc1ccc(O)c(C(=O)O)c1` [Example 1, 5-aminosalicylic acid], in data set [4] (1 = ideal sphere), the Circularity was ~0.8. The “Aspect ratio (width/length; w/l)” value in data set [4] (listed as 5-ASA according to the invention having a particularly high bulk density) is “around 0.5”. For the same molecule, in data set [1], the “Grain size distribution X(10)” value is “X(10) = 7-10 μm”, the “Grain size distribution X(50)” value is on record as 25-35 μm and the “Grain size distribution X(90)” value was 80-90 μm. The same molecule returned a Tapped density in data set [2] of 600 to 800 g/L. In addition, the Bulk density in data set [3] was in the range of 400 to 500 g/L.

In the case of `Nc1ccc(O)c(C(=O)O)c1` [Example 2, 5-aminosalicylic acid], the “Aspect ratio (width/length; w/l)” value in data set [4] (listed as 5-ASA having a high bulk density according to the invention) was “around 0.36”. In data set [1], the “Grain size distribution X(10)” value is “X(10) = 3-5 μm”, the “Grain size distribution X(50)” value is 15-45 μm and the “Grain size distribution X(90)” value was 90-100 μm. In data set [2], this molecule yielded a Tapped density of 510 to 700 g/L. Also, the Bulk density in data set [3] lay in the range of 300 to 400 g/L.
